US6025333A, “Treatment of CNS tumors with metalloprotease inhibitors” (Erziehungsdirektion of the Canton Zurich, priority 1995, dated 2000)
Read-outs that look alike come from different tables or passages of the source. Square brackets hold non-standard residues; d marks the D form. Peptide text beside a SMILES is read from it. * marks the point of attachment. Sta = CC(C)C[C@H](N)[C@@H](O)CC(=O)O; Isovaleryl = CC(C)CC(=O)*; Cbz = O=C(OCc1ccccc1)*

Tests used:
[1] = tested on: C6 cells; assay: C6 cell spreading on PLYS or CNS myelin with protease inhibitors; assay type: cell-based, rat; conditions: for activity at 300 µM: C6, 2.5 h; for activity at 300 µM / Spreading on: PLYS (% of control on PLYS) / Spreading on: CNS (% of control on PLYS): 150 minutes; for inhibition at 300 µM: C6; for inhibition at 300 µM / Inhibition on CNS (%): PLYS value minus CNS myelin value
Description: Rat C6, mouse NIH 3T3 and B16 cells were cultured in Dulbecco's modified Eagle's medium (DMEM) supplemented with 10% fetal calf serum (FCS), usually to maximally 70-80% confluency. Cells were harvested with a short trypsin treatment (0.1% in Ca^2+ /Mg^2+ -free Hank's medium for 90 seconds) stopped by addition of FCS in excess, collected by centrifugation. Cells were resuspended in either DMEM/FCS or defined serum-free medium (MEM) and used for experiments. Dissociated rat CNS glial cells were prepared starting from optic nerves of 6-7 days old Lewis rats as described in Section 6.1.1, supra and plated into poly-D-lysine (PLYS) coated wells (100 mm^2, 100 μl medium) at a density of 20,000 cells per well. The culture medium was an enriched L15 medium with 5% rat serum, penicillin and streptomycin. C6, 3T3 and B16 cells were added to 2 day old cultures at a concentration of 30,000 cells per well, incubated for two hours and fixed with warm 4% formalin in phosphate buffer. Inhibitory oligodendrocytes were identified by double labelling using the specific antibodies O1 and O4 (see Section 6.1.3, supra).
(§1) Myelin from rat spinal cord (CNS) or sciatic nerve (PNS) purified on a discontinuous sucrose gradient as described in Section 6.1.5., was dried overnight onto PLYS coated wells (20 μg protein/well of 100 mm^2 surface). Unbound membranes were removed by three washes with Ca^2+ /Mg^2+ -free Hank's solution. Myelin coated wells were immediately used in substrate testing assays by the addition of 9,000 cells (C6, 3T3, or B16) per cm^2. Alternatively, we used extracted CNS myelin protein, or SDS-PAGE purified 35 and 250 kD inhibitory proteins reconstituted in liposomes (see Section 7.1.5, supra). Experiments were scored at different time points using a phase contrast microscope equipped with a photocamera. Quantifications were done using a surface integration program; three arbitrary fields were photographed for each well at a magnitude of 80×, at least 25 cells per picture were measured. Each point represents the mean of at least 3 wells±SEM. Results are expressed as μ^2 of projected cell surface, or as degree, which was calculated by subtracting from the projected surface value of a spreading cell, the surface value of a completely spheric cell.

[2] = tested on: C6 cells; assay: C6 cell spreading on CNS myelin protein liposomes, antibody and/or 1,10-phenanthroline; assay type: cell-based, rat; conditions: 0.3 mM 1,10-phenanthroline
Description: Substrates were tested as described in Section 7.1.2 supra). Myelin fractions or liposomes in medium A were dried onto the wells of polylysine-coated Greiner dishes (Greiner, Murtingen, FRG). […] When substrates were tested in the presence of antibody, bound substrates were incubated in the presence of undiluted hybridoma supernatants or in the presence of 1:30 dilutions (in Hank's medium) of antisera. After 15 minutes at 37° C., four-fifths of the antibody-containing medium was removed and substituted with cell-containing medium. An analogous preincubation procedure was used in experiments aimed at testing HBO nonpermissiveness. 3T3 experiments were usually scored after a culture period of 1 hour, whereas SCG neurons were allowed to grow processes for 24 hours in culture. When 3T3 cells were preincubated with hybridoma supernatant, incubations were performed in gently agitated suspensions for a period of 15 minutes at room temperature. Cells were then sedimented, resuspended in culture medium, and added to substrate-adsorbed Greiner dish wells. 3T3 cells were added at a density of 30,000 cells per cm^2, and SCG neurons were added at a density of 20,000 cells per cm^2.
as §1, with “Myelin coated wells were immediately used in substrate testing assays by the addition of 9,000 cells (C6, 3T3, or B16) per cm^2. Alternatively, we used extracted CNS myelin protein, or SDS-PAGE purified 35 and 250 kD inhibitory proteins reconstituted in liposomes (see Section 7.1.5, supra).” left out, “Each point represents the mean of at least 3 wells±SEM.” left out

[3] = tested on: 3T3 cells; assay: Treatment of CNS myelin with C6 plasma membranes, then 3T3 spreading and 3H-thymidine incorporation; assay type: cell-based, mouse; conditions: for effect on the C6 plasma membrane effect (neutralization of CNS myelin inhibitory activity): blockers added to C6 plasma membranes
Description: as §1
C6 cells grown to 80% confluency were washed twice with Hank's medium, and harvested in 20 ml 8.5% sucrose, 50 mM NaCl, 10 mM Tris buffer, pH 7.4, using a rubber policeman. After mechanical homogenization through a series of needles of decreasing size, a low purity plasma membrane fraction was obtained by centrifugation (5 minutes at 3000× g, 10 minutes at 8000× g, and then 2 hours at 100,000× g). A higher purity fraction was isolated by loading the material on a discontinuous sucrose gradient, containing 50 mM NaCl, 10 mM Tris, pH 7.4 (Quigley, 1976, J. Cell Biol. 71: 472-486). 20-40% sucrose interphase (C6 plasma membranes fraction) and 40-60% sucrose interphase (C6 mitochondrial fraction) were collected, washed in Hank's medium and resuspended in MEM.
CNS myelin coated PLYS wells were prepared as described in the previous section, but instead of being immediately tested as substrate, they were first incubated with 50 μl of C6 plasma membranes (containing 0.8 mg protein/ml MEM) at 37° for 30 minutes. Dishes were then rinsed twice with Hank's medium and immediately used as substrates for 3T3 cells. In some experiments, protease blockers were added to the membranes using 10 times concentrated solutions.

[4] = tested on: C6 cells; assay: C6 cell attachment and spreading on rat cerebellar frozen sections; assay type: cell-based; conditions: 1,10-phenanthroline 50, 100, 200 and 300 μM; cbz-tyr-tyr 100 μM
Description: Adult rat cerebellum frozen sections were prepared and dried on glass coverslips. 70,000 C6, 3T3, or B16 cells in 100 μl were added to each well containing slices previously rinsed with cold DMEM/FCS. Cultures were incubated for 2 days at 37° C. Cultures were then fixed and stained with cresyl violet. Three to four cerebellum slices were used per point per experiment, with each experiment being repeated at least 2 times.

[5] = tested on: C6 cells; assay: C6 cell infiltration into optic nerve explants; assay type: cell-based, rat; conditions: nerves injected with 4 μl of 3 mM solution; medium 0.5 mM peptide; 14 days
Description: Optic nerve and sciatic nerve explants were prepared as described (Schwab and Thoenen, 1985, J. Neurosci. 5:2415-2423). Briefly, the nerves were rapidly dissected from about 8 week old male rats, cleaned from the meninges, 3 times frozen and thawed using liquid nitrogen, and placed under a teflon ring (diameter 13 mm, thickness 1 mm) sealed to a culture dish with silicon grease. Two chambers connected only by the explants were in this way obtained. 300,000 C6, 3T3 or B16 cells were plated in the inner chamber in DMEM/FCS and incubated for 5 to 20 days. The medium was changed every other day. Cultures were fixed overnight with 4% formalin. The nerve explants were mounted with Tissue-Tek, 10 to 15 μm sections were cut in a cryostate and collected on gelatine coated cover slips. After drying at room temperature overnight, the sections were stained in 0.75% cresyl violet, and evaluated. The infiltrated cells were counted for each 0.1 mm of the explants, starting from the tip where cells were added. Due to the 15 day incubation, the explants were often different in diameter. Therefore, only the central part of the nerves (0.25 mm) were considered, since only this part of the explants presented a good histological quality. Inhibition experiments were performed with nerve explants previously injected from both sides with 2 μl of 3 mM cbz-tyr-tyr or cbz-ala-phe solutions.

[6] = Rattus norvegicus, inhibitor 0.3 mM, read-out: Spreading on: PLYS (% of control on PLYS)
[7] = Rattus norvegicus, inhibitor 0.3 mM, CNS myelin, read-out: Spreading on: CNS (% of control on PLYS)
[8] = Rattus norvegicus, inhibitor 0.3 mM

Compound	inhibition of C6 cell spreading on CNS myelin [1]	activity at 300 µM [1, 6] [%]	activity at 300 µM [1, 7] [%]	inhibition at 300 µM [1, 8] [%]	effect on the C6 plasma membrane effect (neutralization of CNS myelin inhibitory activity) [3]	distribution and behavior of C6 cells on white matter of cerebellar frozen sections [4]	Spreading on: PLYS (% of control on PLYS) ([1]; inhibitor 0.3 mM)	Spreading on: CNS (% of control on PLYS) ([1]; inhibitor 0.3 mM, CNS myelin)	Inhibition on CNS (%) ([1]; inhibitor 0.3 mM)	further results
c1cnc2c(c1)ccc1cccnc12 [1,10-phenanthroline]	up to 67%	97	30	67	completely blocked	dramatically changed the distribution and behavior of C6 cells on the white matter areas	–	–	–	concentrations exerting a general toxic effect on all substrates ([1]; C6 cells, 3 hours, FIG. 22): above 0.5 mM; IC50 ([1]; Rattus norvegicus, C6 cells on CNS myelin, 3 hours (FIG. 22), read-out: Half maximal inhibition of C6 spreading on CNS myelin (IC50)): 200 µM; effect on C6 cell spreading on PLYS, glass and PNS myelin ([1]; concentrations up to 0.5 mM): did not impair C6 cell spreading; spreading value on: CNS lipos. ([2]; substrate preadsorbed with the named antibody or none, 150 minutes): 1.35 μm^2 10^3; spreading value on: PLYS ([2]; with the named antibody or none, 150 minutes): 2.49 μm^2 10^3; % inhibition on CNS lipos. ([2]; with the named antibody or none, relates to PLYS): 46%; 3T3 Cell Spreading (%) ([3]; 3T3 on CNS myelin, alone or preincubated with C6 PM without/with the named inhibitor, 150 minutes, PLYS = 100): 17%; 3H-Thymidine Incorporation (%) ([3]; 3T3 on CNS myelin, alone or preincubated with C6 PM without/with the named inhibitor, 20 hours, PLYS = 100): 50%
CC(C)CC(=O)N[C@H](C(=O)N[C@H](C(=O)N[C@@H](CC(C)C)[C@@H](O)CC(=O)N[C@@H](C)C(=O)N[C@@H](CC(C)C)[C@@H](O)CC(=O)O)C(C)C)C(C)C [pepstatine] (Isovaleryl-VV[Sta]A[Sta]-OH)	–	98	95	3	did not inhibit this effect	–	–	–	–	–
carbobenzoxy-glycine-phenylalanine-amide [cbz-gly-phe-NH2]	55%	–	–	–	completely blocked	–	–	–	–	Spreading on: PLYS (% of control on PLYS) ([1]; inhibitor 1.0 mM): 100 % of control on PLYS; Spreading on: CNS (% of control on PLYS) ([1]; inhibitor 1.0 mM, CNS myelin): 45 % of control on PLYS; Inhibition on CNS (%) ([1]; inhibitor 1.0 mM): 55%
CC(=O)N[C@@H](CC(C)C)C(=O)N[C@@H](CC(C)C)C(=O)N[C@H](C=O)CCCNC(=N)N [leupeptine]	–	–	–	–	did not inhibit this effect	–	91 % of control on PLYS	83 % of control on PLYS	8	–
O=C(N[C@@H](Cc1ccc(O)cc1)C(=O)N[C@@H](Cc1ccc(O)cc1)C(=O)O)OCc1ccccc1 [cbz-tyr-tyr, carbobenzoxy-tryosine-tyrosine] (Cbz-Tyr-Tyr-OH)	–	–	–	–	–	dramatically changed the distribution and behavior of C6 cells on the white matter areas	101 % of control on PLYS	56 % of control on PLYS	45	C6 cell infiltration into optic nerve explants [5]: inhibited C6 cell infiltration in all the 8 nerves examined
